Here are results for eight molecules from patent US20020127536A1, “Mitochondrial assay” (priority 2001, published 2002).

Test [1] relates to isolated rat liver mitochondria. Nature of the test: Polarographic assay of basal respiration: uncoupling action. In kind it is biochemical. The settings on record: for Uncoupling: 500 μM drug, isolated rat liver mitochondria, qualitative; for Uncoupling action (in words): drug added to rat liver mitochondria respiring in the basal state. The source says:
Normally electron transport proceeds at a slow basal rate in the presence of an oxidizable substrate unless the H^+ gradient is dissipated by a need for ATP synthesis. However, if the H^+ gradient is dissipated by the addition of a chemical that alters membrane permeability to H^+, respiration will be stimulated unproductively, that is, without concomitant ATP synthesis, so that energy is wasted. […] If respiration (oxygen consumption) is stimulated, uncoupling is inferred.
The second test determines whether the drug uncouples electron transport from ATP synthesis. Normally, in these preparations, electron transport will proceed at a slow basal rate in the presence of an oxidizable substrate, unless the H^+ gradient is dissipated by a need for ATP synthesis. However, if the H^+ gradient is dissipated by the addition of a drug that alters membrane permeability to H^+, respiration will be stimulated unproductively (i.e., without concomitant ATP synthesis) so that energy is wasted. […] If respiration (e.g., oxygen consumption) is stimulated, uncoupling is inferred.
Normally electron transport proceeds at a slow basal rate in the presence of an oxidizable substrate unless the H^+ gradient is dissipated by a need for ATP synthesis. However, if the H^+ gradient is dissipated by the addition of a drug that alters membrane permeability to H^+ , respiration will be stimulated unproductively without concomitant ATP synthesis so that energy is wasted. Haloperidol, quetiapine, risperidone, and clozapine were added to mitochondria respiring in the basal state (FIG. 3). If respiration (i e., oxygen consumption) is stimulated, uncoupling is inferred.

Another test relates to respiratory complex I. The settings on record: glutamate+malate; for El. Transport Site I: 500 μM drug, isolated rat liver mitochondria, qualitative; for Inhibition of electron transport at respiratory complex I (in words): rat liver mitochondria, 2,4-dinitrophenol added, preliminary data.
A further test concerns ATP synthetase. Nature of the test: Polarographic assay of ADP-stimulated coupled versus uncoupled respiration: inhibition of ATP synthetase. In kind it is biochemical. Conditions: 500 μM drug; isolated rat liver mitochondria; qualitative. As to the method: (§1) When coupling is intact, basal respiration will be stimulated by the addition of ADP to invoke ATP synthesis, as electron transport is stepped up to replace the H^+ gradient that is used by the ATP synthetase enzyme. If the drug inhibits this coupled respiration rate, the inhibition could be due either to inhibition of the ATP synthetase itself or to inhibition of the electron transport rate that supports the ATP synthesis. To detect which is inhibited, the drug is also tested for inhibition of maximal electron transport rates in the presence of a known uncoupler. Inhibition of the coupled, but not the uncoupled respiration rate pinpoints the inhibition to the ATP synthetase or to one of the supporting transport processes such as the phosphate or ADP/ATP transporters.
as §1, with “The third test examines whether the drug inhibits ATP synthetase. When” for “When”, “the difference,” for “which is inhibited,”, “uncoupler, as in the first test described supra.” for “uncoupler.”, “coupled” for “coupled,”, “as” for “as the”
When coupling is intact, basal respiration is stimulated by the addition of ADP which stimulates ATP synthesis, as electron transport is stepped up to re-establish the H^+ gradient that is used by the ATP synthetase enzyme. If the drug inhibits this coupled respiration rate, the inhibition could be due either to inhibition of the ATP synthetase itself or to inhibition of the electron transport rate that supports the ATP synthesis. Haloperidol, quetiapine, risperidone, and clozapine were tested for inhibition of maximal electron transport rates in the presence and absence of a known uncoupler (FIG. 4). Inhibition of the coupled, but not the uncoupled respiration rate pinpoints the inhibition to the ATP synthetase or to one of the supporting transport processes such as phosphate or ADP/ATP transporters.

For another test, the system named is respiratory complex II. The test can be described thus: Polarographic assay of uncoupled (2,4-dinitrophenol) maximal respiration with succinate: inhibition of electron transport at site II. The test is classed as biochemical. Conditions: 500 μM drug, isolated rat liver mitochondria, qualitative.
The next test has as its system electron transport chain. Nature of the test: Polarographic assay of maximal electron transport rate (oxygen consumption), overall inhibition. In kind it is biochemical. Conditions: rat liver mitochondria, maximal rate of oxygen consumption with 2,4-dinitrophenol.
Test [2] relates to mitochondrial respiratory complex I. Conditions: literature statement; cited from earlier work.

Entries after “also recorded” stand apart in the source; their conditions may differ.

Method for electron transport chain: A known uncoupler (2,4-dinitrophenol) was added in the presence of an oxidizable substrate to elicit maximal electron transport rates, measured as the maximal rate of oxygen consumption; a slower rate in the presence of the drug indicates inhibition somewhere in the electron transport chain.
A known uncoupler of oxidative phosphorylation (e.g., 2,4-dinitrophenol) is added to the preparation to elicit maximal electron transport rates, measured as the rate of oxygen consumption. A slower rate in the presence of the drug indicates inhibition somewhere along the electron transport chain. The test is performed with different substrates that donate electrons at either respiratory complex I (glutamate and malate) or at complex II (succinate) or via electron-transferring flavoprotein (ETF) to gain information about site-specific inhibition.
Mitochondrial respiration is measured polarographically using a Clark oxygen electrode. To test for drug effect, an appropriate concentration of drug is introduced at the beginning of the assay, prior to the addition of substrate. The test substance (e.g., drug) is thus present continuously in the assays as the basal, coupled and uncoupled rates are successively determined. The solvent in which the drug is dissolved is tested alone as the control.
Rates were measured as the rate of oxygen consumption. A slower rate in the presence of the drug indicates inhibition somewhere in the electron transport chain. The tests were performed with different substrates that donate electrons at either respiratory complex I (glutamate+malate) or at complex II (succinate) to gain information about site-specific inhibition.

Turning to `O=[N+]([O-])c1ccc(O)c([N+](=O)[O-])c1` [2,4-dinitrophenol], the “Stimulation of basal respiration” value in test [1] (known uncoupler, rat liver mitochondria in basal state with oxidizable substrate) is on record as 6-10 fold.
Regarding `O=C(CCCN1CCC(O)(c2ccc(Cl)cc2)CC1)c1ccc(F)cc1` [Haloperidol], in the test on respiratory complex I, the “El. Transport Site I” value was “++” and the “Inhibition of electron transport at respiratory complex I (in words)” value is given as “inhibited electron transport specifically at respiratory complex I”. For the same molecule, the Uncoupling entry in test [1] is on record as “−”. Moreover, the “ATP Synthesis” value with ATP synthetase was “−”. For the same molecule, the “El. Transport Site II” value with respiratory complex II was “−”. Further, the “Inhibition of electron transport, overall (in words)” value (from here on “Inhibition … overall (in words)”) in the test with electron transport chain is reported as “potent inhibitors of electron transport”.
As for `O=C(CCC[n+]1ccc(-c2ccc(Cl)cc2)cc1)c1ccc(F)cc1` [HPP^+], the “Inhibition of mitochondrial complex I (in words)” value in test [2] is given as “potent inhibitor of mitochondrial complex I”.
Take `C[n+]1ccc(-c2ccccc2)cc1` [MPP^+, 1-methyl-4-phenylpyridinium]: the “Inhibition of mitochondrial complex I (in words)” value in test [2] was “potent and specific inhibitor of mitochondrial respiratory complex I”.
In the case of `CSc1ccc2c(c1)N(CCC1CCCCN1C)c1ccccc1S2` (stereo not drawn) [Thioridazine], the “El. Transport Site I” value with respiratory complex I was “+++”. The Uncoupling result in test [1] is reported as “++”. In test [1], the “Uncoupling action (in words)” value is “more potent than clozapine”. The “ATP Synthesis” value with ATP synthetase is “−”. Also, the “El. Transport Site II” value in the test on respiratory complex II is listed as “+”. Moreover, the results for the “Inhibition … overall (in words)” value in the test on electron transport chain and in the test on electron transport chain (listed as thioridazine) were “inhibited electron transport markedly but not specifically at either complex I or II” and “potent inhibitors of electron transport”, respectively.
On to `OCCOCCN1CCN(C2=Nc3ccccc3Sc3ccccc32)CC1` [Quetiapine], for which, in the test on respiratory complex I, the “El. Transport Site I” value is given as “+”; the “Inhibition of electron transport at respiratory complex I (in words)” value was “had a slight effect and was also specific for complex I”. In test [1], the Uncoupling result is “+” and the “Uncoupling action (in words)” value is recorded as “more potent than clozapine”. For the same molecule, in the test with ATP synthetase, the “ATP Synthesis” value was “−”. For the same molecule, the “El. Transport Site II” value in the test with respiratory complex II is reported as “−”. Moreover, the “Inhibition … overall (in words)” value in the test on electron transport chain is “very mild effects”.
`CN(C)CCCN1c2ccccc2Sc2ccc(Cl)cc21` [Chlorpromazine]: in the test on respiratory complex I, the “El. Transport Site I” value is recorded as “+++” and the “Inhibition of electron transport at respiratory complex I (in words)” value is “inhibited electron transport specifically at respiratory complex I”. For the same molecule, in test [1], the Uncoupling result was “++” and the “Uncoupling action (in words)” value is given as “more potent than clozapine”. Further, the “ATP Synthesis” value with ATP synthetase is listed as “−”. Further, the “El. Transport Site II” value in the test on respiratory complex II was “+”. Further, the “Inhibition … overall (in words)” value in the test with electron transport chain was “potent inhibitors of electron transport”.
With `Cc1nc2n(c(=O)c1CCN1CCC(c3noc4cc(F)ccc34)CC1)CCCC2` [Risperidone], the “El. Transport Site I” value in the test with respiratory complex I was “+++”. Moreover, in test [1], the Uncoupling result is “++” and the “Uncoupling action (in words)” value is “more potent than clozapine”. Also, in the test with ATP synthetase, the “ATP Synthesis” value is recorded as “−”. In the test with respiratory complex II, the “El. Transport Site II” value was “+”. Besides, in the test on electron transport chain, the “Inhibition … overall (in words)” value was “inhibited electron transport markedly but not specifically at either complex I or II; also recorded: potent inhibitors of electron transport”.
